Data on one compound can be found in patent US20240382497A1, “PROPHYLACTIC OR THERAPEUTIC AGENT FOR HYPOXIC INJURY, ISCHAEMIA-REPERFUSION INJURY AND INFLAMMATION, CELL PROTECTION AGENT FOR TRANSPLANTATION, AND BIO-PRESERVATION AGENT” (priority 2018, published 2024).

SMILES strings stand for the structures.

In test [1] the test system is C57/BL6N male mice. Nature of the test: Respiratory rate on odor presentation (pulse oximeter). The class given is in vivo, mouse. Particulars: filter paper scented with 271 μmol odor, 20 min. Here is the method: An influence of a thiazoline-related compound and an odor molecule that induces learned fear on the respiratory rate was analyzed. The respiratory rate was analyzed using a pulse oximeter (Mouse Oxplus; STARR Life Science). A pulse oximeter was attached to the neck of C57/BL6N male mice (about 3-month-old) from about 1 week before the test and the mice were acclimated by repeating this operation. The mice were anesthetized with pentobarbital (50 mg/kg, i.p.) 2 days before the test, and the neck hair was depilated with depilatory cream. On the day of testing, an oximeter probe was attached to the shaven neck. After confirming that the signal became stable, the no odor baseline was measured for 10 min, changes in the respiratory rate when the thiazoline-related compound (2MT) or neutral odor (Eugenol; Eug) was presented was measured for 20 min (each n=6). The odors were presented by placing filter papers scented with 271 μmol of odor in the test cage. The oximeter signal was obtained at 1 Hz.

Test [2] concerns Male C57/BL6N mice. Description: Skin blood flow on odor presentation (laser Doppler). The class given is in vivo, mouse. Particulars: filter paper scented with 271 μmol odor, 20 min, versus no odor. Here is the method:
An influence of a thiazoline-related compound and an odor molecule that induces learned fear on the skin blood flow was analyzed. Male C57/BL6N mice (about 3 months old) were anesthetized with pentobarbital (50 mg/kg, i.p.) about 5 days before the test, and the back hair was depilated with depilatory cream. A mouse restrainer having an observation window was prepared using a 50 ml tube, the mice were trained to enter the restrainer from the day after hair removal, and acclimated by performing this operation until the day before the test. On the day of testing, each mouse was placed in a restrainer, and a laser Doppler probe was attached to the shaved back of the mouse with an adhesive tape. After confirming that the blood flow signal became stable, (1) no odor was presented for 10 min, (2) Eugenol odor was presented for 10 min, (3) thiazoline-related compound (2MT) or an odor that induces learned fear (Anis-FS+) was presented for 20 min, and changes in the blood flow were measured. […] The blood flow rate was measured every 10 seconds using a laser Doppler blood flow meter (ADVANCE CO., LTD. ALF21D). The mean skin blood flow without odor (10 min) or with the presentation of a thiazoline-related compound or an odor that induces learned fear (20 min) was calculated, and the mean skin blood flow was shown as a relative value with the mean skin blood flow without odor as 100%.

Test [3] deals with High Mobility Group Box 1 (HMGB1). Description: Blood HMGB1 in LPS sepsis model (ELISA). The class given is in vivo, mouse. As to conditions: about 80 mg/kg i.p., 16 hr, versus saline. Here is the method: Lipopolysaccharide (LPS) (0.6 mg/kg) was intraperitoneally administered to male Balb/c mice (about 2-3 months old) to generate a sepsis model. Immediately after the LPS administration, 200 μl (about 80 mg/kg) of a solution prepared by diluting various heterocyclic compounds and isothiocyanate compounds 100 times with saline was intraperitoneally administered. Blood samples were collected 60 min after LPS and compound administration, EDTA plasma was prepared, and the blood level of inflammatory cytokine TNF-a was measured by the ELISA method.
A sepsis model mouse was prepared by the same method as in Example 18. Immediately after the LPS administration, 200 μl (about 80 mg/kg) of a thiazoline-related compound (2MT) solution prepared by diluting 100 times with saline was intraperitoneally administered. Blood samples were collected 16 hr after administration of LPS and thiazoline-related compound (2MT), EDTA plasma was prepared, and the blood level of inflammatory mediator High Mobility Group Box 1 (HMGB1) was measured by the ELISA method.
Background: In an ELISA, binding on a coated surface is turned into a signal by an enzyme label.

Test [4] deals with C57/BL6N male mice. Description: Survival time in 4% oxygen after odor presentation. The class given is in vivo, mouse. Particulars: odor 100 μl (104 mmol) presented 50 min before; measured up to 30 min; no odor controls all died within 20 min. Here is the method: About 3-month-old C57/BL6N male mice were each placed in a highly sealed breeding cage, and a filter paper scented with 100 μl (104 mmol) of the thiazoline-related compound (2MT) was placed in the breeding cage, and the odor was presented for 50 min. After the odor was presented, the mice were placed in a tight box in which the oxygen concentration was adjusted to 4%, and the survival time of the mice was measured up to 30 min at maximum. As a control, the survival time of mice presented with a filter paper dropped with water was also measured (no odor). Furthermore, changes in the core body temperature when the odor was presented under the same conditions as in this Example were measured by the same experimental method as in Example 4.

Test [5] deals with Skin ischemia-reperfusion injury model mouse. Description: Skin ischemia-reperfusion injury (pressure ulcer) model, wound area. As to conditions: odor 100 μl (104 mmol) 30 min before and during 12 hr of pinching the skin between magnets, versus no odor. The class given is in vivo. Here is the method:
Skin ischemia-reperfusion injury model mouse was generated as follows according to the method of Uchiyama et al. (Uchiyama et al., Sci Rep 5:9072, 2015). The back hair of C57/BL6N male mice (about 3-month-old) was shaved in the same manner as in Example 1, 2-3 days before the test. On the day of the test, the mice were each placed in a highly sealed cage, and a filter paper scented with 100 μl (104 mmol) of the thiazoline-related compound (2MT) was placed in the breeding cage, and the odor was presented for 30 min. As a control, a filter paper dropped with water was presented for 30 min (no odor). After 30 min, the mouse was taken out from the cage, the dorsal skin was pinched between two circular magnets and the mouse was returned to the highly sealed cage. Furthermore, a filter paper scented with 100 μl (104 mmol) of 2 MT or water was placed in the highly sealed cage, and the mouse was left for 12 hr. […] The condition of the skin on the back, which was pinched between magnets, was recorded by taking photographs every day. Based on the obtained images, the wound area was quantified with image analysis software (Photoshop, Adobe). Furthermore, changes in the core body temperature when the odor was presented under the same conditions as in this Example were measured by the same experimental method as in Example 2.

Test [6] deals with Male C57/BL6N mice. Description: Heart rate on odor presentation (radio-telemetry). As to conditions: filter paper scented with 271 μmol odor. The class given is in vivo, mouse. Here is the method:
An influence of a thiazoline-related compound and an odor molecule that induces learned fear on the heart rate was analyzed. A radio-telemetry device for monitoring biological parameters (manufactured by Physiotel) was surgically implanted in the abdomen of male C57/BL6N mice (about 3 months old). The mice were subjected to the following experiment after about 10 days of recovery period. Each mouse was placed in a test cage and, after acclimation for 10 min, a filter paper dropped with water was presented for 10 min, after which a filter paper scented with 271μmol of a thiazoline-related compound (2-methyl-2-thiazoline; 2MT) or an odor molecule that induces learned fear (anisole) was presented for 20 min. The information of heart rate was recorded every 10 sec using Dataquest A.R.T. software (DataScience international). The value of the heart rate change was calculated as the difference between the heart rate for 10 min when water was presented and the mean heart rate for 20 min when each odor molecule was presented, and the change in the heart rate without odor was set to 0. The mice presented with the odor that induces learned fear were trained to associate the anisole odor with electric shock one day before the measurement, whereby the mice learned to feel learned fear against the smell of anisole.

For `CC1=NCCS1` [2MT, 2-methyl-2-thiazoline], the respiratory rate result in the test with C57/BL6N male mice [1] is listed as “reduced the respiratory rate by about half”. Moreover, the skin blood flow result in the test on Male C57/BL6N mice [2] is recorded as “decreased the skin blood flow”. Further, the “blood concentration of HMGB1” value in test [3] is on record as “decreased the blood concentration of inflammatory mediator HMGB1”. In the test on C57/BL6N male mice [4], the “survival time in 4% oxygen” value is listed as “many individuals survived even after 30 min”. The “formation of pressure ulcer (wound area)” value in test [5] is on record as “formation of pressure ulcer significantly decreased”. In addition, the “time to decrease in the heart rate to half” value with Male C57/BL6N mice [6] was not above 3 min. Moreover, the “changes in the heart rate” value with Male C57/BL6N mice [6] (20 min, versus no odor) was “clear decrease in the heart rate”.
